We go through eight compounds from publication PMC8348110, “A Novel Peptide Derived from the Transmembrane Domain of Romo1 Is a Promising Candidate for Sepsis Treatment and Multidrug-Resistant Bacteria” (International Journal of Molecular Sciences, 2021).

Converted amounts (≈) assume the structure as drawn. Residues, ends and D or L forms follow the SMILES beside them.

Experiment [1] concerns Methicillin-resistant S. aureus (MRSA) ATCC 33591. Format: cell-based, Staphylococcus aureus. As to conditions: ATCC 33591, 1 h. The protocol:
(§1) The minimum bactericidal concentration (MBC) was determined as previously described with minor modifications. Briefly, bacteria were cultured in the mid-log phase and diluted to 5 × 10^5 colony-forming unit (CFU)/mL in 10 mM sodium phosphate buffer (pH 7.4) with a 1% volume of TS broth. They were incubated for 1 h with various peptides which were two-fold diluted serially from 64 μg/mL to 0 μg/mL concentrations in a 96-well plate. The samples were inoculated TS agar plate and incubated overnight at 37 °C. The value of MBC was determined at the lowest concentrations at which no colonies were identified.
(§2) We used the CFU counting method to measure antibacterial activity, with all bacteria cultured to the mid-log phase in an appropriate broth medium. Bacterial CFUs were counted after overnight culture at 37 °C on TS or LB agar plates. The MBC value and antibacterial activity in blood components were determined as previously described. Mouse and human whole blood were collected and diluted with PBS (pH 7.4) to measure the ex vivo antibacterial activity of AMPR-22. For that test, AMPR-22 (10 μg) was added to each whole blood solution and incubated at 37 °C with shaking at 200 rpm. At each time point, it was incubated with bacteria (1 × 10^3 CFU) for 30 min. Each sample was inoculated on an LB agar plate, and CFU counting was performed. To measure the in vivo activity of AMPR-22, 1 × 10^8 CFU of bacteria were injected into BALB/c mice, and an hour later, 10 mg/kg of the test peptides were injected. Blood samples were collected by tail cut, serially diluted with PBS (pH 7.4), and inoculated on LB-agar plates, followed by CFU counting. To estimate the functional half-life of AMPR-22, 40 mg/kg of each tested peptide were injected into mice. Whole blood sampling was performed by cardiac puncture, and the plasma was isolated by centrifugation (2000× g, 15 min). The isolated plasma was incubated with bacteria (1 × 10^3 CFU) for an hour, and then the CFU counting method was performed.

In experiment [2] the test system is Pseudomonas aeruginosa ATCC 27853. Format: cell-based. As to conditions: ATCC 27853, 1 h. The protocol: as §1, §2
The subject of experiment [3] is Staphylococcus aureus ATCC 29213. Format: cell-based. Particulars: ATCC 29213, 1 h, pH 7.4. The protocol:
as §1, §2

Experiment [4] concerns Carbapenem-resistant P. aeruginosa (CRPA), clinical isolate. Format: cell-based, Pseudomonas aeruginosa. As to conditions: 1 h.
Excerpt: Acinetobacter baumannii (ATCC 19606), B. subtilis (ATCC 6633), E. aerogenes (ATCC 13048), E. coli (ATCC 25922), E. faecalis (ATCC 19433), E. faecium (ATCC 19434), K. pneumoniae (ATCC 13883), P. aeruginosa (ATCC 27853), S. aureus (ATCC 29213), S. sindenensis (ATCC 23963), and MRSA (ATCC 33591) were purchased from the American Type Culture Collection (ATCC; Gaithersburg, MD, USA). Streptococcus pneumoniae (NCCP 14585), vancomycin-resistant E. faecium (NCCP 11522), and vancomycin-resistant S. aureus (NCCP 15872) were purchased from the National Culture Collection for Pathogens (NCCP; Cheongju, Korea). The isolation and use of carbapenem-resistant bacterial strains from a patient were approved (2015AN0129) by the Institutional Review Board (IRB) of Korea University Hospital. CRPA, CRKP, and CRAB were clinically isolated in Korea University Hospital (Seoul, Korea). CRPA was confirmed to be resistant to piperacillin, piperacillin-tazobactam, ceftazidime, imipenem, meropenem, gentamicin, amikacin, and ciprofloxacin. CRAB was confirmed to be resistant to piperacillin, piperacillin-tazobactam, cefepime, ceftazidime, imipenem, meropenem, gentamicin, amikacin, and ciprofloxacin. CRKP was confirmed to be resistant to piperacillin-tazobactam, cefepime, ceftazidime, imipenem, gentamicin, and ciprofloxacin. All strains were stored at –80 °C in 50% glycerol and 50% Luria-Bertani (LB) or tryptic soy (TS) broth, grown on LB or TS plates, and aerated at 37 °C.
as §1, §2

Consider `CC[C@H](C)[C@H](NC(=O)CNC(=O)[C@H](CCSC)NC(=O)[C@@H](NC(=O)[C@H](C)NC(=O)[C@H](CCSC)NC(=O)[C@H](Cc1ccccc1)NC(=O)[C@@H](NC(=O)CNC(=O)[C@H](Cc1ccccc1)NC(=O)[C@H](CCCCN)NC(=O)CNC(=O)CNC(=O)[C@H](CCCCN)NC(=O)[C@H](CCCCN)NC(=O)[C@H](CCSC)NC(=O)[C@H](CCSC)NC(=O)[C@H](CCCCN)NC(=O)[C@@H](N)CCCCN)[C@@H](C)O)[C@@H](C)CC)C(=O)N[C@@H](CCCNC(=N)N)C(=O)O` [d74G] (H-KKMMKKGGKFGTFMAIMGIR-OH), for which the “MBC Value, MRSA” value in experiment [1] came out at 4 µg/mL (≈ 1.77 µM). The “MBC Value, P. aeruginosa” value in experiment [2] was 4 µg/mL (≈ 1.77 µM). Further, the “MBC Value, S. aureus” value in experiment [3] came to 4 µg/mL (≈ 1.77 µM). Moreover, the “MBC Value, CRPA” value in experiment [4] is on record as 8 µg/mL (≈ 3.54 µM).
With `CC[C@H](C)[C@H](NC(=O)CNC(=O)[C@H](CCSC)NC(=O)CNC(=O)[C@@H](NC(=O)[C@H](C)NC(=O)[C@H](CCSC)NC(=O)[C@H](Cc1ccccc1)NC(=O)[C@@H](NC(=O)CNC(=O)[C@H](Cc1ccccc1)NC(=O)[C@H](CCCCN)NC(=O)CNC(=O)CNC(=O)[C@H](CCCCN)NC(=O)[C@H](CCCCN)NC(=O)[C@H](CCSC)NC(=O)[C@H](CCCCN)NC(=O)[C@@H](N)CCCCN)[C@@H](C)O)[C@@H](C)CC)C(=O)N[C@@H](CCCNC(=N)N)C(=O)O` [d60M] (H-KKMKKGGKFGTFMAIGMGIR-OH), the “MBC Value, MRSA” value in experiment [1] is 1 µg/mL (≈ 0.457 µM). The “MBC Value, P. aeruginosa” value in experiment [2] turned out to be 2 µg/mL (≈ 0.915 µM). For the same compound, the “MBC Value, S. aureus” value in experiment [3] amounted to 4 µg/mL (≈ 1.83 µM). Also, the “MBC Value, CRPA” value in experiment [4] is given as 4 µg/mL (≈ 1.83 µM).
On to `CC[C@H](C)[C@H](NC(=O)CNC(=O)[C@H](CCSC)NC(=O)CNC(=O)[C@@H](NC(=O)[C@H](C)NC(=O)[C@H](CCSC)NC(=O)[C@H](Cc1ccccc1)NC(=O)[C@@H](NC(=O)CNC(=O)[C@H](Cc1ccccc1)NC(=O)[C@H](CCCCN)NC(=O)CNC(=O)CNC(=O)[C@H](CCCCN)NC(=O)[C@H](CCCCN)NC(=O)[C@H](CCSC)NC(=O)[C@H](CCSC)NC(=O)[C@H](CCCCN)NC(=O)[C@@H](N)CCCCN)[C@@H](C)O)[C@@H](C)CC)C(=O)O` [d78R] (H-KKMMKKGGKFGTFMAIGMGI-OH), for which the “MBC Value, MRSA” value in experiment [1] is on record as 4 µg/mL (≈ 1.85 µM). In addition, the “MBC Value, P. aeruginosa” value in experiment [2] was found to be 4 µg/mL (≈ 1.85 µM). The “MBC Value, S. aureus” value in experiment [3] was determined as 16 µg/mL (≈ 7.4 µM). Moreover, the “MBC Value, CRPA” value in experiment [4] is given as 16 µg/mL (≈ 7.4 µM).
As to `CC[C@H](C)[C@H](NC(=O)CNC(=O)[C@H](CCSC)NC(=O)CNC(=O)[C@@H](NC(=O)[C@H](CCSC)NC(=O)[C@H](Cc1ccccc1)NC(=O)[C@@H](NC(=O)CNC(=O)[C@H](Cc1ccccc1)NC(=O)[C@H](CCCCN)NC(=O)CNC(=O)CNC(=O)[C@H](CCCCN)NC(=O)[C@H](CCCCN)NC(=O)[C@H](CCSC)NC(=O)[C@H](CCSC)NC(=O)[C@H](CCCCN)NC(=O)[C@@H](N)CCCCN)[C@@H](C)O)[C@@H](C)CC)C(=O)N[C@@H](CCCNC(=N)N)C(=O)O` [d72A] (H-KKMMKKGGKFGTFMIGMGIR-OH), in experiment [1], the “MBC Value, MRSA” value is listed as 2 µg/mL (≈ 0.89 µM). Besides, the “MBC Value, P. aeruginosa” value in experiment [2] is on record as 2 µg/mL (≈ 0.89 µM). Moreover, the “MBC Value, S. aureus” value in experiment [3] turned out to be 2 µg/mL (≈ 0.89 µM). Moreover, the “MBC Value, CRPA” value in experiment [4] was 4 µg/mL (≈ 1.78 µM).
In the case of `CC[C@H](C)[C@H](NC(=O)CNC(=O)[C@H](CCSC)NC(=O)CNC(=O)[C@@H](NC(=O)[C@H](C)NC(=O)[C@H](CCSC)NC(=O)[C@H](Cc1ccccc1)NC(=O)[C@@H](NC(=O)CNC(=O)[C@H](CCCCN)NC(=O)CNC(=O)CNC(=O)[C@H](CCCCN)NC(=O)[C@H](CCCCN)NC(=O)[C@H](CCSC)NC(=O)[C@H](CCSC)NC(=O)[C@H](CCCCN)NC(=O)[C@@H](N)CCCCN)[C@@H](C)O)[C@@H](C)CC)C(=O)N[C@@H](CCCNC(=N)N)C(=O)O` [d67F] (H-KKMMKKGGKGTFMAIGMGIR-OH), the “MBC Value, MRSA” value in experiment [1] came to 4 µg/mL (≈ 1.84 µM). For the same compound, in experiment [2], the “MBC Value, P. aeruginosa” value is 4 µg/mL (≈ 1.84 µM). Moreover, the “MBC Value, S. aureus” value in experiment [3] worked out at 8 µg/mL (≈ 3.69 µM). For the same compound, in experiment [4], the “MBC Value, CRPA” value turned out to be 8 µg/mL (≈ 3.69 µM).
As to `CC[C@H](C)[C@H](NC(=O)CNC(=O)[C@H](CCSC)NC(=O)CNC(=O)[C@@H](NC(=O)[C@H](C)NC(=O)[C@H](CCSC)NC(=O)[C@H](Cc1ccccc1)NC(=O)CNC(=O)[C@H](Cc1ccccc1)NC(=O)[C@H](CCCCN)NC(=O)CNC(=O)CNC(=O)[C@H](CCCCN)NC(=O)[C@H](CCCCN)NC(=O)[C@H](CCSC)NC(=O)[C@H](CCSC)NC(=O)[C@H](CCCCN)NC(=O)[C@@H](N)CCCCN)[C@@H](C)CC)C(=O)N[C@@H](CCCNC(=N)N)C(=O)O` [d69T] (H-KKMMKKGGKFGFMAIGMGIR-OH), in experiment [1], the “MBC Value, MRSA” value came to 1 µg/mL (≈ 0.451 µM). Also, the “MBC Value, P. aeruginosa” value in experiment [2] came out at 4 µg/mL (≈ 1.8 µM). Further, the “MBC Value, S. aureus” value in experiment [3] is given as 2 µg/mL (≈ 0.902 µM). In addition, in experiment [4], the “MBC Value, CRPA” value was 4 µg/mL (≈ 1.8 µM).
As to `CC[C@H](C)[C@H](NC(=O)CNC(=O)[C@H](CCSC)NC(=O)CNC(=O)[C@@H](NC(=O)[C@H](C)NC(=O)[C@H](Cc1ccccc1)NC(=O)[C@@H](NC(=O)CNC(=O)[C@H](Cc1ccccc1)NC(=O)[C@H](CCCCN)NC(=O)CNC(=O)CNC(=O)[C@H](CCCCN)NC(=O)[C@H](CCCCN)NC(=O)[C@H](CCSC)NC(=O)[C@H](CCSC)NC(=O)[C@H](CCCCN)NC(=O)[C@@H](N)CCCCN)[C@@H](C)O)[C@@H](C)CC)C(=O)N[C@@H](CCCNC(=N)N)C(=O)O` [d71M] (H-KKMMKKGGKFGTFAIGMGIR-OH), the “MBC Value, MRSA” value in experiment [1] came to 4 µg/mL. The “MBC Value, P. aeruginosa” value in experiment [2] stood at 2 µg/mL. Further, the “MBC Value, S. aureus” value in experiment [3] was determined as 4 µg/mL. Besides, the “MBC Value, CRPA” value in experiment [4] turned out to be 8 µg/mL.
Take `CC[C@H](C)[C@H](NC(=O)CNC(=O)[C@H](CCSC)NC(=O)CNC(=O)[C@@H](NC(=O)[C@H](C)NC(=O)[C@H](CCSC)NC(=O)[C@H](Cc1ccccc1)NC(=O)[C@@H](NC(=O)CNC(=O)[C@H](Cc1ccccc1)NC(=O)CNC(=O)CNC(=O)[C@H](CCCCN)NC(=O)[C@H](CCCCN)NC(=O)[C@H](CCSC)NC(=O)[C@H](CCSC)NC(=O)[C@H](CCCCN)NC(=O)[C@@H](N)CCCCN)[C@@H](C)O)[C@@H](C)CC)C(=O)N[C@@H](CCCNC(=N)N)C(=O)O` [d66K] (H-KKMMKKGGFGTFMAIGMGIR-OH): the “MBC Value, MRSA” value in experiment [1] came out at 4 µg/mL (≈ 1.83 µM). Moreover, in experiment [2], the “MBC Value, P. aeruginosa” value was found to be 4 µg/mL (≈ 1.83 µM). The “MBC Value, S. aureus” value in experiment [3] is reported as 8 µg/mL (≈ 3.65 µM). Further, the “MBC Value, CRPA” value in experiment [4] is listed as 4 µg/mL (≈ 1.83 µM).
